Data taken from patent publication US20240285630A1, “Methods and compositions for improving exercise performance” (MEZZION PHARMA CO., LTD., priority 2021, published 2024).

What was measured:
[1] = system: Fontan population; test: FUEL OLE (open-label extension) trial; type: in vivo, human; conditions: those treated with udenafil in the FUEL trial; 26 to 78 weeks
From the text: Like most extension studies, the FUEL open label extension trial was not a placebo-controlled trial, but was instead designed to establish a safety profile over a longer duration of drug exposure—and is an independent source of data from FUEL.

[2] = system: adolescents with Fontan physiology; test: FUEL Trial peripheral arterial tonometry (EndoPAT), log-transformed reactive hyperemia index; type: in vivo, human; conditions: for Log-transformed reactive hyperemia index, difference Week 26 - baseline, mean (SD): paired data
From the text: Baseline clinical testing completed before drug initiation included a blood draw to measure brain-type natriuretic peptide (BNP) level, a cardiopulmonary exercise test (CPET) using a standardized cycle ergometer ramp protocol, a standardized echocardiogram, and an assessment of peripheral vascular function using peripheral arterial tonometry (PAT) measured by finger cuff (EndoPAT; Itamar Medical, Israel). Participants who achieved maximal effort, defined as respiratory exchange ratio (RER)≥1.10 at peak exercise during CPET, were eligible for randomization and study drug initiation. […] End-of-study clinical testing included repeat measurement of serum BNP, CPET, echocardiogram, and PAT.
Baseline clinical testing completed before drug initiation included a blood draw to measure brain-type natriuretic peptide (BNP) level, a cardiopulmonary exercise test (CPET) using a standardized cycle ergometer ramp protocol (previously described in children and adolescents with Fontan physiology, Sleeper L A, Anderson P, Hsu D T, Mahony L, McCrindle B W, Roth S J, Saul J P, Williams R V, Geva T, Colan S D, Clark B J and Pediatric Heart Network I. Design of a large cross-sectional study to facilitate future clinical trials in children with the Fontan palliation. Am Heart J. 152(3):427-433 (September 2006), a standardized echocardiogram, and an assessment of peripheral vascular function using peripheral arterial tonometry (PAT) measured by finger cuff (EndoPAT; Itamar Medical, Israel). Participants who achieved maximal effort, defined as respiratory exchange ratio (RER)>1.10 at peak exercise during CPET, were eligible for randomization and study drug initiation. […] End-of-study clinical testing included repeat measurement of serum BNP, CPET, echocardiogram, and PAT. […]

[3] = system: adolescents with Fontan physiology; test: FUEL Trial safety, adverse event reports; type: in vivo, human
From the text: The primary outcome was the change in oxygen consumption at peak exercise (max or peak VO2) from baseline to the 26-week visit. Secondary exercise outcomes included change in additional measures at maximal exertion, as well as change in measures of submaximal exercise at the ventilatory anaerobic threshold (VAT). The primary outcome for clinical secondary aims included change in myocardial performance index (MPI), an echocardiographically-derived measure of systolic and diastolic ventricular function, change in log-transformed reactive hyperemia index (InRHI), a PAT-derived measure of peripheral vascular function, and change in log-transformed serum BNP level. Safety was monitored through adverse event reports, which were collected according to a pre-specified protocol of study coordinator outreach, and through ad hoc patient and family communication with members of the study team at each site.
The primary outcome for clinical secondary aims included the between group differences in change in myocardial performance index (MPI), an echocardiographically-derived measure of systolic and diastolic ventricular function, change in log-transformed reactive hyperemia index (InRHI), a PAT-derived measure of peripheral vascular function, and change in log-transformed serum BNP level. Measurements for each of these secondary outcomes were performed at core labs. Safety was monitored through adverse event reports, which were collected according to a pre-specified protocol of study coordinator outreach, and through ad hoc patient and family communication with members of the study team at each site.
A sample size of 200 participants per arm was chosen to allow for 90% power to detect a mean treatment difference in change from baseline to 26-week testing in peak VO2 of 10% with a type 1 error of 0.05. We assumed a baseline standard deviation of 7.235 ml/kg/min, a correlation between peak VO2 measurements of 0.33, a drop-out and incomplete testing rate of 10%, and failure to reach maximal effort at the 26-week exercise testing in 15% of participants. These assumptions were based on historical data and reflect a conservative approach to assessing within-participant correlations and failure to reach maximal effort and the analysis was performed using a two-sample, independent means t-test. The primary analysis used the intention-to-treat population to evaluate the difference in the change in the primary outcome between treatment arms. This difference was assessed with an analysis of covariance (ANCOVA) with fixed factors for ventricular morphology (single left versus single right or mixed) and treatment group, with a continuous covariate of baseline peak VO2. For those without data at the 26-week visit, this value was imputed as equal to the baseline value (no change). The alpha level was set at 0.05 with two-sided testing. All statistical analyses were performed using SAS statistical software 9.4 (SAS Institute, Inc., Cary, North Carolina). Secondary analyses included participants who successfully completed the protocol with measurable values at each of the secondary endpoints. Secondary outcomes of continuous data points were analyzed in the manner described for the primary outcome. In order to assess the generalizability of findings at the ventilatory anaerobic threshold, demographic and clinical characteristics were compared between participants without paired VO2 at VAT data and those comprising the remainder of the cohort using the Student's t-test and Fisher's exact test. Fisher's exact test was used to compare adverse events between the udenafil and placebo cohorts.

[4] = system: adolescents with Fontan physiology; conditions: cited from earlier work

For CCCOc1ccc(S(=O)(=O)NCCC2CCCN2C)cc1-c1nc2c(CCC)nn(C)c2c(=O)[nH]1 (centres unmarked) [Udenafil, udenafil], the “Change from baseline in peak or max VO2 over FUEL and FUEL OLE” value [1] was “persistence of benefit”, the “Log-transformed reactive hyperemia index, difference LS Mean (SE), udenafil vs placebo” value ([2]; ANCOVA) was 0.02 (0.030) and the “Log-transformed reactive hyperemia index, difference Week 26 - baseline, mean (SD)” value [2] was 0.06 (0.301). For the same compound, the “Log-transformed reactive hyperemia index, difference Week 26 - baseline, mean (SD)” value ([2]; listed as udenafil) was 0.07, the “Dizziness, % of participants” value ([3]; human, in vivo, 26 weeks) was “(8.0) %” and the “Dizziness, number of participants” value ([3]; human, in vivo, 26 weeks) was 16. The “Epistaxis, % of participants” value ([3]; human, in vivo, 26 weeks) was “(10.5) %”, the “Epistaxis, number of participants” value ([3]; human, in vivo, 26 weeks) was 21 and the “Flushing, % of participants” value ([3]; human, in vivo, 26 weeks) was “(16.0) %”. For the same compound, the “Flushing, number of participants” value ([3]; human, in vivo, 26 weeks) was 32, the “Headache, % of participants” value ([3]; human, in vivo, 26 weeks) was “(39.5) %” and the “Headache, number of participants” value ([3]; human, in vivo, 26 weeks) was 79. For the same compound, the “Nausea/vomiting, % of participants” value ([3]; human, in vivo, 26 weeks) was “(15.5) %”, the “Nausea/vomiting, number of participants” value ([3]; human, in vivo, 26 weeks) was 31 and the “Participants who experienced a serious adverse event” value ([3]; human, in vivo, 26 weeks) was 14. The “Serious adverse events with possible, probable, or definite relationship to study drug” value ([3]; human, in vivo, 26 weeks) was 3, the Priapism ([3]; in vivo) was “no reported episodes of priapism” and the “Increased erection, % of male participants” value ([3]; male, human, in vivo, 26 weeks) was “(11.7) %”. For the same compound, the “Increased erection, number of participants” value ([3]; male, human, in vivo, 26 weeks) was 13, the Deaths ([3]; study cohort) was “no deaths” and the Average serum concentration ([4]; 87.5 mg twice daily compared with other tested regimens) was “highest average serum concentration”. For the same compound, the “Dose limiting adverse events” value ([4]; 87.5 mg twice daily) was “not associated with dose limiting adverse events” and the Tolerability ([4]; all tested dosing regimens) was “demonstrated tolerability at all tested dosing regimens”.
